System: D. melanogaster nAChRs
Assay: Comparison of agonist activity between nAChRs expressed in X. laevis oocytes (one-way ANOVA, Kruskal-Wallis)
Format: cell-based
Protocol: We minimised the use of X. laevis according to the UK Animals (Scientific Procedures) Act, 1986. […] Oocytes were defolliculated after collagenase treatment in Ca^2+-free standard oocyte saline (Ca^2+-free SOS). cRNAs of the nAChR subunits and co-factors mixed at a concentration of 0.1 mg/mL was injected into oocytes at a volume of 50 nL. Then the oocytes were incubated in the incubation medium (SOS supplemented with sodium pyruvate (Nacalai Tesque, #13058–12), penicillin-streptomycin (MilliporeSigma, #P4333), gentamycin (Nacalai Tesque, #16672–04), and 4% horse serum (Thermo Fisher Scientific, #26050–070) for 3−4 days prior to electrophysiology.
Each defolliculated X. laevis oocyte was secured in a Perspex recording chamber and perfused with the standard oocyte saline (SOS) containing 0.5 μM atropine (SOSA) at a flow rate of 7−10 mL/min [48]. Two glass electrodes filled with 2 M KCl were impaled into each oocyte and the membrane potential was clamped at -100 mV. […] The peak amplitude of the response was measured and analysed by pCLAMP (Molecular Devices, USA).
Y=Imax/1+10^(logEC50‐X)nH
Where Y is the normalised response, X is log[ligand (M)], EC50 is the half maximal concentration (M), Imax is the maximum normalised response and nH is the Hill coefficient.
Prism software was employed for the statistical analyses. […] One-way ANOVA was used to analyse the differences of the ligand agonist activity in terms of pEC50 on the various nAChRs expressed in X. laevis as well as data obtained with D. melanogaster larvae and adults.

[1] = Dα1/Dβ1/Dβ2 vs. Dα1/Dα3/Dβ1/Dβ2
[2] = Dα1/Dβ1/Dβ2 vs. Dα2/Dα3/Dβ1/Dβ2
[3] = Dα1/Dβ1 vs. Dα1/Dα2/Dα3/Dβ1/Dβ2
[4] = Dα2/Dα3/Dβ1/Dβ2 vs. Dα1/Dα2/Dα3/Dβ1/Dβ2
[5] = Dα2/Dα3/Dβ1 vs. Dα1/Dα2/Dα3/Dβ1
[6] = Dα2/Dα3/Dβ1 vs. Dα1/Dα2/Dα3/Dβ1/Dβ2
[7] = Dα2/Dα3/Dβ1 vs. Dα1/Dα2/Dβ1/Dβ2
[8] = Dα2/Dα3/Dβ1 vs. Dα1/Dα3/Dβ1/Dβ2
[9] = Dα2/Dα3/Dβ1 vs. Dα2/Dα3/Dβ1/Dβ2
[10] = Dα3/Dβ1/Dβ2 vs. Dα1/Dα2/Dα3/Dβ1/Dβ2
[11] = Dα3/Dβ1/Dβ2 vs. Dα1/Dα2/Dβ1/Dβ2
[12] = Dα3/Dβ1/Dβ2 vs. Dα1/Dα3/Dβ1/Dβ2
[13] = Dα3/Dβ1/Dβ2 vs. Dα2/Dα3/Dβ1/Dβ2
[14] = Dα3/Dβ1 vs. Dα1/Dα2/Dα3/Dβ1/Dβ2

## CN/C(=N\[N+](=O)[O-])NCc1cnc(Cl)s1 [Clothianidin, clothianidin]
[1]
  Difference of Imax values, nAChRs compared: -0.324
  Difference of pEC50 values, nAChRs compared: -0.76
[2]
  Difference of Imax values, nAChRs compared: -0.274
  Difference of pEC50 values, nAChRs compared: -0.65
Dα1/Dβ1/Dβ2 vs. Dα3/Dβ1/Dβ2
  Difference of Imax values, nAChRs compared: -0.132
  Difference of pEC50 values, nAChRs compared: -0.82
Dα1/Dβ1 vs. Dα1/Dα2/Dα3/Dβ1
  Difference of Imax values, nAChRs compared: -0.309
  Difference of pEC50 values, nAChRs compared: 0.58
[3]
  Difference of Imax values, nAChRs compared: -0.304
  Difference of pEC50 values, nAChRs compared: 0.54
Dα1/Dβ1 vs. Dα1/Dα2/Dβ1
  Difference of Imax values, nAChRs compared: -0.191
  Difference of pEC50 values, nAChRs compared: 2.06
Dα1/Dβ1 vs. Dα1/Dα2/Dβ1/Dβ2
  Difference of Imax values, nAChRs compared: -0.292
  Difference of pEC50 values, nAChRs compared: 0.82
Dα1/Dβ1 vs. Dα1/Dα3/Dβ1
  Difference of Imax values, nAChRs compared: -0.119
  Difference of pEC50 values, nAChRs compared: -0.07
Dα1/Dβ1 vs. Dα1/Dα3/Dβ1/Dβ2
  Difference of Imax values, nAChRs compared: -0.176
  Difference of pEC50 values, nAChRs compared: -0.27
Dα1/Dβ1 vs. Dα1/Dβ1/Dβ2
  Difference of Imax values, nAChRs compared: 0.148
  Difference of pEC50 values, nAChRs compared: 0.49
Dα1/Dβ1 vs. Dα2/Dα3/Dβ1
  Difference of Imax values, nAChRs compared: -0.374
  Difference of pEC50 values, nAChRs compared: 0.32
Dα1/Dβ1 vs. Dα2/Dα3/Dβ1/Dβ2
  Difference of Imax values, nAChRs compared: -0.126
  Difference of pEC50 values, nAChRs compared: -0.16
Dα1/Dβ1 vs. Dα3/Dβ1
  Difference of Imax values, nAChRs compared: -0.183
  Difference of pEC50 values, nAChRs compared: -0.41
Dα1/Dβ1 vs. Dα3/Dβ1/Dβ2
  Difference of Imax values, nAChRs compared: 0.016
  Difference of pEC50 values, nAChRs compared: -0.33
[4]
  Difference of Imax values, nAChRs compared: -0.178
  Difference of pEC50 values, nAChRs compared: 0.70
[5]
  Difference of Imax values, nAChRs compared: 0.065
  Difference of pEC50 values, nAChRs compared: 0.26
[6]
  Difference of Imax values, nAChRs compared: 0.070
  Difference of pEC50 values, nAChRs compared: 0.22
[7]
  Difference of Imax values, nAChRs compared: 0.082
  Difference of pEC50 values, nAChRs compared: 0.50
[8]
  Difference of Imax values, nAChRs compared: 0.198
  Difference of pEC50 values, nAChRs compared: -0.59
Dα2/Dα3/Dβ1 vs. Dα1/Dβ1/Dβ2
  Difference of Imax values, nAChRs compared: 0.522
  Difference of pEC50 values, nAChRs compared: 0.17
[9]
  Difference of Imax values, nAChRs compared: 0.248
  Difference of pEC50 values, nAChRs compared: -0.48
Dα2/Dα3/Dβ1 vs. Dα3/Dβ1/Dβ2
  Difference of Imax values, nAChRs compared: 0.390
  Difference of pEC50 values, nAChRs compared: -0.65
[10]
  Difference of Imax values, nAChRs compared: -0.320
  Difference of pEC50 values, nAChRs compared: 0.87
[11]
  Difference of Imax values, nAChRs compared: -0.308
  Difference of pEC50 values, nAChRs compared: 1.15
[12]
  Difference of Imax values, nAChRs compared: -0.192
  Difference of pEC50 values, nAChRs compared: 0.06
[13]
  Difference of Imax values, nAChRs compared: -0.142
  Difference of pEC50 values, nAChRs compared: 0.17
Dα3/Dβ1 vs. Dα1/Dα2/Dα3/Dβ1
  Difference of Imax values, nAChRs compared: -0.126
  Difference of pEC50 values, nAChRs compared: 0.99
[14]
  Difference of Imax values, nAChRs compared: -0.121
  Difference of pEC50 values, nAChRs compared: 0.95
Dα3/Dβ1 vs. Dα1/Dα2/Dβ1
  Difference of Imax values, nAChRs compared: -0.008
  Difference of pEC50 values, nAChRs compared: 2.47
Dα3/Dβ1 vs. Dα1/Dα2/Dβ1/Dβ2
  Difference of Imax values, nAChRs compared: -0.109
  Difference of pEC50 values, nAChRs compared: 1.23
Dα3/Dβ1 vs. Dα1/Dα3/Dβ1
  Difference of Imax values, nAChRs compared: 0.064
  Difference of pEC50 values, nAChRs compared: 0.34
Dα3/Dβ1 vs. Dα1/Dα3/Dβ1/Dβ2
  Difference of Imax values, nAChRs compared: 0.007
  Difference of pEC50 values, nAChRs compared: 0.14
Dα3/Dβ1 vs. Dα1/Dβ1/Dβ2
  Difference of Imax values, nAChRs compared: 0.331
  Difference of pEC50 values, nAChRs compared: 0.90
Dα3/Dβ1 vs. Dα2/Dα3/Dβ1
  Difference of Imax values, nAChRs compared: -0.191
  Difference of pEC50 values, nAChRs compared: 0.73
Dα3/Dβ1 vs. Dα2/Dα3/Dβ1/Dβ2
  Difference of Imax values, nAChRs compared: 0.057
  Difference of pEC50 values, nAChRs compared: 0.25
Dα3/Dβ1 vs. Dα3/Dβ1/Dβ2
  Difference of Imax values, nAChRs compared: 0.199
  Difference of pEC50 values, nAChRs compared: 0.08
